Measurements from US9701664B2, “Fused 1,4-dihydrodioxin derivatives as inhibitors of heat shock transcription factor 1” (Cancer Research Technology Limited, priority 2013, dated 2017).

System: HSP72 in SK-OV-3 cells
Experiment: Cell-based ELISA (Cellisa) assay, SK-OV-3 cells: inhibition of 17-AAG-induced HSP72
Conditions: SK-OV-3 cells (Examples 169-218)
Description: U2OS cells (5-8×10^4 cells/mL) or SK-OV-3 cells (5-8×10^4 cells/mL) were seeded into 96-well plates and incubated at 37° C. for 48 h. Compounds were then added at a range of concentrations and incubated for 1 h before addition of 17-AAG (250 nM). Cells were then incubated for 18 h. The medium was removed washed 2× with PBS and cells were then fixed with fixing solution (4% paraformaldehyde, 0.3% TritonX-100 in PBS) for 30 min at 4° C. The plates were then washed 2× with PBS before blocking with 5% milk for 30 min at 37° C. After washing the plates 4× with 0.1% Tween-20/deionised water, HSP72 antibody (SPA-810, Enzo Life) was added for 1.5 h at 37° C. Following 4× washes, the plates were incubated with europium-labelled anti-mouse antibody (0.6 ug/ml) in Delfia assay buffer (Perkin Elmer) for 1 h at 37° C. After washing the plates, Delfia enhancement solution was added, shaken for 10 min before reading in the Envision plate reader (Perkin-Elmer) with excitation at 340 nm and emission at 615 nm. The plates were washed again before protein determination using the bicinchoninic acid assay (BCA assay, Pierce Biotechnology). The europium counts were normalised for the amount of protein in each well. The 50% inhibitory concentration value of the compound was then calculated.

O=C(Nc1ccc(Cl)c(NC(=O)c2ccc3nc(CN4CCC4)ccc3c2)c1)c1ccc2c(c1)OCCO2 [Example 199, 2-(azetidin-1-ylmethyl)-N-(2-chloro-5-(2,3-dihydrobenzo[b][1,4]dioxine-6-carboxamido)phenyl)quinoline-6-carboxamide]
IC50 (Homo sapiens): 85 nM

CC1CCCN1Cc1ccc2cc(C(=O)Nc3cc(NC(=O)c4ccc5c(c4)OCCO5)ccc3F)ccc2n1 (racemic) [Example 190, (rac)-N-(5-(2,3-dihydrobenzo[b][1,4]dioxine-6-carboxamido)-2-fluorophenyl)-2-((2-methylpyrrolidin-1-yl)methyl)quinoline-6-carboxamide]
IC50 (Homo sapiens): 267 nM

CC1(C)CN(Cc2ccc3cc(C(=O)Nc4cc(NC(=O)c5ccc6c(c5)OCCO6)ccc4Cl)ccc3n2)C1 [Example 201, N-(2-chloro-5-(2,3-dihydrobenzo[b][1,4]dioxine-6-carboxamido)phenyl)-2-((3,3-dimethylazetidin-1-yl)methyl)quinoline-6-carboxamide]
IC50 (Homo sapiens): 83 nM

Cc1ccc(NC(=O)c2ccc3c(c2)OCCO3)cc1NC(=O)c1ccc2nc(CN3CC[C@H](F)C3)ccc2c1 [Example 207, (S)—N-(5-(2,3-dihydrobenzo[b][1,4]dioxine-6-carboxamido)-2-methylphenyl)-2-((3-fluoropyrrolidin-1-yl)methyl)quinoline-6-carboxamide]
IC50 (Homo sapiens): 80 nM

CC(C)N1CCN(Cc2ccc3cc(C(=O)Nc4cc(NC(=O)c5ccc6c(c5)OCCO6)ccc4F)ccc3n2)[C@@H](C)C1 [Example 217, (S)—N-(5-(2,3-dihydrobenzo[b][1,4]dioxine-6-carboxamido)-2-fluorophenyl)-2-((4-isopropyl-2-methylpiperazin-1-yl)methyl)quinoline-6-carboxamide]
IC50 (Homo sapiens): 137 nM

C=Cc1ccc(NC(=O)c2ccc3c(c2)OCCO3)cc1NC(=O)c1ccc2nc(C)ccc2c1 [Example 210, N-(5-(2,3-dihydrobenzo[b][1,4]dioxine-6-carboxamido)-2-vinylphenyl)-2-methylquinoline-6-carboxamide]
IC50 (Homo sapiens): 419 nM

O=C(Nc1ccc(F)c(NC(=O)c2ccc3nc(CN4CCCC4)ccc3c2)c1)c1ccc2c(c1)OCCO2 [Example 170, N-(5-(2,3-dihydrobenzo[b][1,4]dioxine-6-carboxamido)-2-fluorophenyl)-2-(pyrrolidin-1-ylmethyl)quinoline-6-carboxamide]
IC50 (Homo sapiens): 379 nM

2-((4-(sec-butyl)piperazin-111)methyl)-N-(5-(2,3-dihydrobenzo[b][1,4]dioxine-6-carboxamido)-2-fluorophenyl)quinoline-6-carboxamide [Example 179]
IC50: 19 nM

Cc1ccc(NC(=O)c2ccc3c(c2)OCCO3)cc1NC(=O)c1ccc2nc(CN3CC[C@@H](F)C3)ccc2c1 [Example 206, (R)—N-(5-(2,3-dihydrobenzo[b][1,4]dioxine-6-carboxamido)-2-methylphenyl)-2-((3-fluoropyrrolidin-1-yl)methyl)quinoline-6-carboxamide]
IC50 (Homo sapiens): 76 nM

O=C(Nc1ccc(Cl)c(NC(=O)c2ccc3nc(CN4CCN(C5CC5)CC4)ccc3c2)c1)c1ccc2c(c1)OCCO2 [Example 194, N-(2-chloro-5-(2,3-dihydrobenzo[b][1,4]dioxine-6-carboxamido)phenyl)-2-((4-cyclopropylpiperazin-1-yl)methyl)quinoline-6-carboxamide]
IC50 (Homo sapiens): 213 nM

CCN1CCN(Cc2ccc3cc(C(=O)Nc4cc(NC(=O)c5ccc6c(c5)OCCO6)ccc4Br)ccc3n2)CC1 [Example 215, N-(2-bromo-5-(2,3-dihydrobenzo[b][1,4]dioxine-6-carboxamido)phenyl)-2-((4-ethylpiperazin-1-yl)methyl)quinoline-6-carboxamide]
IC50 (Homo sapiens): 39 nM

2-((4-(sec-butyl)piperazin-111)methyl)-N-(2-chloro-5-(2,3-dihydrobenzo[b][1,4]dioxine-6-carboxamido)phenyl)quinoline-6-carboxamide [Example 193]
IC50: 66 nM

Cc1ccc(NC(=O)c2ccc3c(c2)OCCO3)cc1NC(=O)c1ccc2nc(CN3CCCCC3)ccc2c1 [Example 209, N-(5-(2,3-dihydrobenzo[b][1,4]dioxine-6-carboxamido)-2-methylphenyl)-2-(piperidin-1-ylmethyl)quinoline-6-carboxamide]
IC50 (Homo sapiens): 208 nM

COC1CCN(Cc2ccc3cc(C(=O)Nc4cc(NC(=O)c5ccc6c(c5)OCCO6)ccc4C)ccc3n2)C1 (stereo not drawn) [Example 208, N-(5-(2,3-dihydrobenzo[b][1,4]dioxine-6-carboxamido)-2-methylphenyl)-2-((3-methoxypyrrolidin-1-yl)methyl)quinoline-6-carboxamide]
IC50 (Homo sapiens): 53 nM

O=C(Nc1ccc(F)c(NC(=O)c2ccc3nc(CN4CCNCC4)ccc3c2)c1)c1ccc2c(c1)OCCO2 [Example 174, N-(5-(2,3-dihydrobenzo[b][1,4]dioxine-6-carboxamido)-2-fluorophenyl)-2-(piperazin-1-ylmethyl)quinoline-6-carboxamide]
IC50 (Homo sapiens): 78 nM

CCN1CCN(Cc2ccc3cc(C(=O)Nc4cc(NC(=O)c5ccc6c(c5)OCCO6)ccc4C)ccc3n2)CC1 [Example 204, N-(5-(2,3-dihydrobenzo[b][1,4]dioxine-6-carboxamido)-2-methylphenyl)-2-((4-ethylpiperazin-1-yl)methyl)quinoline-6-carboxamide]
IC50 (Homo sapiens): 56 nM

CC(C)N1CCN(Cc2ccc3cc(C(=O)Nc4cc(NC(=O)c5ccc6c(c5)OCCO6)ccc4F)ccc3n2)CC1 [Example 185, N-(5-(2,3-dihydrobenzo[b][1,4]dioxine-6-carboxamido)-2-fluorophenyl)-2-((4-isopropylpiperazin-1-yl)methyl)quinoline-6-carboxamide]
IC50 (Homo sapiens): 137 nM

O=C(Nc1ccc(Cl)c(NC(=O)c2ccc3nc(CN4CCNCC4)ccc3c2)c1)c1ccc2c(c1)OCCO2 [Example 192, N-(2-chloro-5-(2,3-dihydrobenzo[b][1,4]dioxine-6-carboxamido)phenyl)-2-(piperazin-1-ylmethyl)quinoline-6-carboxamide]
IC50 (Homo sapiens): 128 nM

O=C(Nc1ccc(Br)c(NC(=O)c2ccc3nc(CN4CCC4)ccc3c2)c1)c1ccc2c(c1)OCCO2 [Example 216, 2-(azetidin-1-ylmethyl)-N-(2-bromo-5-(2,3-dihydrobenzo[b][1,4]dioxine-6-carboxamido)phenyl)quinoline-6-carboxamide]
IC50 (Homo sapiens): 55 nM

Cc1ccc(NC(=O)c2ccc3c(c2)OCCO3)cc1NC(=O)c1ccc2nc(CN3CCCC3C)ccc2c1 (stereo not drawn) [Example 205, N-(5-(2,3-dihydrobenzo[b][1,4]dioxine-6-carboxamido)-2-methylphenyl)-2-((2-methylpyrrolidin-1-yl)methyl)quinoline-6-carboxamide]
IC50 (Homo sapiens): 65 nM

O=C(Nc1ccc(F)c(NC(=O)c2ccc3nc(OCCCN4CCCCC4)ccc3c2)c1)c1ccc2c(c1)OCCO2 [Example 186, N-(5-(2,3-dihydrobenzo[b][1,4]dioxine-6-carboxamido)-2-fluorophenyl)-2-(3-(piperidin-1-yl)propoxy)quinoline-6-carboxamide]
IC50 (Homo sapiens): 13 nM

O=C(Nc1ccc(F)c(NC(=O)c2ccc3nc(CN4CCN(C5CC5)CC4)ccc3c2)c1)c1ccc2c(c1)OCCO2 [Example 178, 2-((4-cyclopropylpiperazin-1-yl)methyl)-N-(5-(2,3-dihydrobenzo[b][1,4]dioxine-6-carboxamido)-2-fluorophenyl)quinoline-6-carboxamide]
IC50 (Homo sapiens): 44 nM

O=C(Nc1ccc(F)c(NC(=O)c2ccc3nc(CN4CC5(CCC5)C4)ccc3c2)c1)c1ccc2c(c1)OCCO2 [Example 181, 2-(2-azaspiro[3.3]heptan-2-ylmethyl)-N-(5-(2,3-dihydrobenzo[b][1,4]dioxine-6-carboxamido)-2-fluorophenyl)quinoline-6-carboxamide]
IC50 (Homo sapiens): 149 nM

CCN1CCN(Cc2ccc3cc(C(=O)Nc4cc(NC(=O)c5ccc6c(c5)OCCO6)ccc4F)ccc3n2)CC1 [Example 169, N-(5-(2,3-dihydrobenzo[b][1,4]dioxine-6-carboxamido)-2-fluorophenyl)-2-((4-ethylpiperazin-1-yl)methyl)quinoline-6-carboxamide]
IC50 (Homo sapiens): 56 nM
